Laboratory results taken from patent US8354394B2, “Diuretics” (Merck Sharp & Dohme Corp., priority 2009, dated 2013).

Tested on: beagle dogs
Experiment: canine telemetry protocol for blood pressure reduction efficacy
Type: in vivo
Conditions: male beagle dogs, 3 mg/kg oral gavage
Procedure: Compounds of the invention were evaluated for blood pressure reduction efficacy using the following canine telemetry protocol.
Male beagle dogs (approximately 1-3 years old) with a body weight of between 10 and 16 kg were surgically implanted with DSI radiotelemetry devices (model: TL11M2-D70-PCT). Briefly, under an inhalant anesthesia, isoflurane/oxygen mixture (1-3.5%/to effect), the body of the telemetry device was positioned and secured intra-abdominally. Subsequently, the arterial catheter of the telemetry device was passed subcutaneously to the inguinal area and introduced into the femoral artery and advanced to the level of the descending aorta. The catheter was secured with 2-0 silk ligatures. The muscle and underlying fascia was closed over the catheter using absorbable suture and the skin was closed using non-absorbable suture. The animals were allowed a minimum recovery period of 2 weeks between surgery and the evaluation of test compounds.
Compound evaluation consisted of a 3 day paradigm at a 3 mg/kg dose. On the first day, no compounds were administered during a 24 hour period of baseline data collection. Blood pressure and heart rate data were collected continuously for one minute periods at 10 minute intervals. On the days of compound administration half the animals received test article with the other half receiving the vehicle used for compound formulation. All test materials were administered by oral gavage in a volume of 1 mL/kg. Data are expressed either as raw values (mm Hg or beats per minute) or as the change from baseline (average value for about 12 hours in low activity period prior to dosing). Change is SBP (systolic blood pressure) and PP (pulse pressure) over time is shown below: […]

SMILES	ΔPP (pulse pressure, change from baseline) 1-6 h	ΔSBP (systolic blood pressure, change from baseline) 1-6 h	ΔPP (pulse pressure, change from baseline) 6-12 h	ΔSBP (systolic blood pressure, change from baseline) 6-12 h	ΔPP (pulse pressure, change from baseline) 12-18 h	ΔSBP (systolic blood pressure, change from baseline) 12-18 h
Cc1ncc2c(c1OC(=O)[C@H]1CC[C@H](O/N=[N+](\[O-])N(C)C(C)(C)C)CC1)CO[C@H]2c1ccc(Cl)cc1 [Example 6, (3S)-3-(4-Chlorophenyl)-6-methyl-1,3-dihydrofuro[3,4-c]pyridin-7-yl trans-4-({[(1Z)-2-tert-butyl-2-methyl-1-oxidohydrazono]amino}oxy)cyclohexanecarboxylate]	−16 mm Hg	−16 mm Hg	−7 mm Hg	−6 mm Hg	−3 mm Hg	−1 mm Hg
Cc1ncc2c(c1OC(=O)CCC(C)CO/N=[N+](\[O-])N(C)C(C)(C)C)CO[C@H]2c1ccc(Cl)cc1 (stereo partly drawn) [Example 13, (3S)-3-(4-Chlorophenyl)-6-methyl-1,3-dihydrofuro[3,4-c]pyridin-7-yl 5-({[(1Z)-2-tert-butyl-2-methyl-1-oxido-1λ^5-diazan-1-ylidene]amino}oxy)-4-methylpentanoate]	−22 mm Hg	−30 mm Hg	−11 mm Hg	−15 mm Hg	−6 mm Hg	−4 mm Hg
Cc1ncc2c(c1OC(=O)CCCC(C)O/N=[N+](\[O-])N(C)C(C)(C)C)CO[C@H]2c1ccc(Cl)cc1 (stereo partly drawn) [Example 14, (3S)-3-(4-Chlorophenyl)-6-methyl-1,3-dihydrofuro[3,4-c]pyridin-7-yl 5-({[(1Z)-2-tert-butyl-2-methyl-1-oxido-1λ^5-diazan-1-ylidene]amino}oxy)hexanoate]	−18 mm Hg	−21 mm Hg	−9 mm Hg	−8 mm Hg	−3 mm Hg	3 mm Hg
Cc1ncc2c(c1OC(=O)CCCCO/N=[N+](\[O-])N(C)C(C)(C)C)CO[C@H]2c1ccc(Cl)cc1 [Example 8, (3S)-3-(4-Chlorophenyl)-6-methyl-1,3-dihydrofuro[3,4-c]pyridin-7-yl 5-({[(1Z)-2-tert-butyl-2-methyl-1-oxido-1λ^5-diazan-1-ylidene]amino}oxy)pentanoate]	−12 mm Hg	−15 mm Hg	−8 mm Hg	−12 mm Hg	−4 mm Hg	−2 mm Hg
Cc1ncc2c(c1OC(=O)O[C@@H](C)CCCCO/N=[N+](\[O-])N(C)C(C)(C)C)CO[C@H]2c1ccc(Cl)cc1 [Example 25, (2S)-6-({[(1Z)-2-tert-butyl-2-methyl-1-oxido-1λ^5-diazan-1-ylidene]amino}oxy)hexan-2-yl (3 S) 3-(4-chlorophenyl)-6-methyl-1,3-dihydrofuro[3,4-c]pyridin-7-yl carbonate]	−12 mm Hg	−14 mm Hg	−7 mm Hg	−7 mm Hg	−4 mm Hg	0 mm Hg
Cc1ncc2c(c1OC(=O)[C@H]1CC[C@@H](O/N=[N+](\[O-])N(C)C(C)(C)C)CC1)CO[C@H]2c1ccc(Cl)cc1 [Example 5, (3S)-3-(4-Chlorophenyl)-6-methyl-1,3-dihydrofuro[3,4-c]pyridin-7-yl cis-4-({[(1Z)-2-tert-butyl-2-methyl-1-oxidohydrazono]amino}oxy)cyclohexanecarboxylate]	−10 mm Hg	−11 mm Hg	−3 mm Hg	−2 mm Hg	1 mm Hg	2 mm Hg
